From publication PMC5218480 (PLoS ONE, 2017)

System: MV-4-11 cells
Test: Gene expression microarray analysis (Affymetrix PrimeView) and GSEA
Format: cell-based, human
Design: RFU PODN (11730768_x_at) / Fold change /veh PODN (11730768_x_at) / RFU LINC00158 (11744669_a_at) / Fold change /veh LINC00158 (11744669_a_at) / RFU DUSP10 (11751237_a_at) / Fold change /veh DUSP10 (11751237_a_at) / RFU ID3 (11757404_x_at) / Fold change /veh ID3 (11757404_x_at) / RFU PLEKHG5 (11737974_s_at) / Fold change /veh PLEKHG5 (11737974_s_at) / RFU LRRC4B (11730491_at) / Fold change /veh LRRC4B (11730491_at) / RFU GIMAP4 (11747438_a_at) / Fold change /veh GIMAP4 (11747438_a_at) / RFU KRT8 (11758183_x_at) / Fold change /veh KRT8 (11758183_x_at) / RFU CNN1 (11734310_a_at) / Fold change /veh CNN1 (11734310_a_at) / RFU VPS37D (11726825_at) / Fold change /veh VPS37D (11726825_at) / RFU C10orf10 (11716522_x_at) / Fold change /veh C10orf10 (11716522_x_at) / RFU KIR2DL2 /// KIR2DL4 /// KIR2DL5A /// KIR2DL5B /// KIR2DS1 /// KIR2DS2 /// KIR2DS3 /// KIR2DS4 /// KIR3DL3 /// KIR3DL3 /// KIR3DS1 (11738374_at) / Fold change /veh KIR2DL2 /// KIR2DL4 /// KIR2DL5A /// KIR2DL5B /// KIR2DS1 /// KIR2DS2 /// KIR2DS3 /// KIR2DS4 /// KIR3DL3 /// KIR3DL3 /// KIR3DS1 (11738374_at) / RFU C1QL1 (11718748_at) / Fold change /veh C1QL1 (11718748_at) / RFU TMPRSS4 (11747572_a_at) / Fold change /veh TMPRSS4 (11747572_a_at) / RFU HAMP (11756126_x_at) / Fold change /veh HAMP (11756126_x_at) / RFU RNFT2 (11725882_a_at) / Fold change /veh RNFT2 (11725882_a_at) / RFU NR4A2 (11747474_a_at) / Fold change /veh NR4A2 (11747474_a_at) / RFU ABCC12 (11746883_a_at) / Fold change /veh ABCC12 (11746883_a_at) / RFU TMEM136 (11760407_x_at) / Fold change /veh TMEM136 (11760407_x_at) / RFU CLDN22 /// WWC2 (11732394_at) / Fold change /veh CLDN22 /// WWC2 (11732394_at) / RFU HLA-DPB1 (11760878_x_at) / Fold change /veh HLA-DPB1 (11760878_x_at) / RFU SPINT1 (11716480_a_at) / Fold change /veh SPINT1 (11716480_a_at) / RFU GAP43 (11754022_s_at) / Fold change /veh GAP43 (11754022_s_at) / RFU A4GNT (11735810_at) / Fold change /veh A4GNT (11735810_at) / RFU PRB3 (11715151_x_at) / Fold change /veh PRB3 (11715151_x_at) / RFU TUBB4B (11761932_at) / Fold change /veh TUBB4B (11761932_at) / RFU CAPN14 (11732068_a_at) / Fold change /veh CAPN14 (11732068_a_at) / RFU TMCC2 (11721928_a_at) / Fold change /veh TMCC2 (11721928_a_at) / RFU IRGQ (11745062_a_at) / Fold change /veh IRGQ (11745062_a_at) / RFU FAM174B (11720279_a_at) / Fold change /veh FAM174B (11720279_a_at) / RFU TMPRSS4 (11748680_a_at) / Fold change /veh TMPRSS4 (11748680_a_at) / RFU FAM212B (11763350_a_at) / Fold change /veh FAM212B (11763350_a_at) / RFU PLEKHG5 (11743358_a_at) / Fold change /veh PLEKHG5 (11743358_a_at) / RFU ZSCAN30 (11745921_a_at) / Fold change /veh ZSCAN30 (11745921_a_at) / RFU CMKLR1 (11741424_a_at) / Fold change /veh CMKLR1 (11741424_a_at) / RFU LOC101060620 /// MAPK8IP1 (11723275_at) / Fold change /veh LOC101060620 /// MAPK8IP1 (11723275_at) / RFU SPTSSB (11747773_x_at) / Fold change /veh SPTSSB (11747773_x_at) / RFU PRSS12 (11739890_at) / Fold change /veh PRSS12 (11739890_at) / RFU BIN1 (11741810_x_at) / Fold change /veh BIN1 (11741810_x_at) / RFU WNT11 (11732464_a_at) / Fold change /veh WNT11 (11732464_a_at) / RFU C10orf10 (11716521_a_at) / Fold change /veh C10orf10 (11716521_a_at) / RFU C5orf56 (11738089_at) / Fold change /veh C5orf56 (11738089_at) / RFU CYB561 (11721691_x_at) / Fold change /veh CYB561 (11721691_x_at) / RFU ANKRD19P (11752326_a_at) / Fold change /veh ANKRD19P (11752326_a_at) / RFU OR2T12 /// OR2T33 /// OR2T8 (11738714_s_at) / Fold change /veh OR2T12 /// OR2T33 /// OR2T8 (11738714_s_at) / RFU VCAN (11748164_a_at) / Fold change /veh VCAN (11748164_a_at) / RFU JSRP1 (11732532_at) / Fold change /veh JSRP1 (11732532_at) / RFU KRTAP10-11 (11738290_x_at) / Fold change /veh KRTAP10-11 (11738290_x_at) / RFU MYO3A (11730013_a_at) / Fold change /veh MYO3A (11730013_a_at) / RFU EBF3 (11725865_a_at) / Fold change /veh EBF3 (11725865_a_at) / RFU CAMK2N1 (11719241_x_at) / Fold change /veh CAMK2N1 (11719241_x_at) / RFU C5orf56 (11738088_a_at) / Fold change /veh C5orf56 (11738088_a_at) / RFU OLFML3 (11715873_a_at) / Fold change /veh OLFML3 (11715873_a_at) / RFU LOC100653217 /// NTM (11731650_a_at) / Fold change /veh LOC100653217 /// NTM (11731650_a_at) / RFU MAPK11 (11762145_a_at) / Fold change /veh MAPK11 (11762145_a_at) / RFU FIZ1 (11724087_x_at) / Fold change /veh FIZ1 (11724087_x_at) / RFU OASL (11726364_x_at) / Fold change /veh OASL (11726364_x_at) / RFU SOX15 (11748057_x_at) / Fold change /veh SOX15 (11748057_x_at) / RFU CD79A (11719716_a_at) / Fold change /veh CD79A (11719716_a_at) / RFU HIST1H1D (11736915_at) / Fold change /veh HIST1H1D (11736915_at) / RFU CASKIN2 (11723855_a_at) / Fold change /veh CASKIN2 (11723855_a_at) / RFU LOC730098 (11760151_x_at) / Fold change /veh LOC730098 (11760151_x_at) / RFU OR4N2 (11742367_at) / Fold change /veh OR4N2 (11742367_at) / RFU PRRT2 (11749266_a_at) / Fold change /veh PRRT2 (11749266_a_at) / RFU SNX32 (11753110_a_at) / Fold change /veh SNX32 (11753110_a_at) / RFU CDHR5 (11726645_a_at) / Fold change /veh CDHR5 (11726645_a_at) / RFU RCAN1 (11760418_a_at) / Fold change /veh RCAN1 (11760418_a_at) / RFU FAM167A (11723789_a_at) / Fold change /veh FAM167A (11723789_a_at) / RFU FAM26E (11764081_at) / Fold change /veh FAM26E (11764081_at) / RFU ISYNA1 (11749810_s_at) / Fold change /veh ISYNA1 (11749810_s_at) / RFU ACY1 (11761880_at) / Fold change /veh ACY1 (11761880_at) / RFU 11764098_at / Fold change /veh 11764098_at / RFU SAMD14 (11745864_x_at) / Fold change /veh SAMD14 (11745864_x_at) / RFU NPB (11741838_a_at) / Fold change /veh NPB (11741838_a_at) / RFU TMPRSS6 (11731388_a_at) / Fold change /veh TMPRSS6 (11731388_a_at) / RFU KRTAP10-2 (11738614_at) / Fold change /veh KRTAP10-2 (11738614_at) / RFU ARHGAP8 /// PRR5-ARHGAP8 (11727945_x_at) / Fold change /veh ARHGAP8 /// PRR5-ARHGAP8 (11727945_x_at) / RFU KRTAP5-7 /// NADSYN1 (11734609_at) / Fold change /veh KRTAP5-7 /// NADSYN1 (11734609_at) / RFU RASL12 (11751679_a_at) / Fold change /veh RASL12 (11751679_a_at) / RFU CDKN2B (11736163_a_at) / Fold change /veh CDKN2B (11736163_a_at) / RFU PRF1 (11729649_at) / Fold change /veh PRF1 (11729649_at) / RFU, ZNF638 /// ZNF638-IT1 / Fold change vs veh, ZNF638 /// ZNF638-IT1 / RFU, PANK3 / Fold change vs veh, PANK3 / RFU, SH3YL1 / Fold change vs veh, SH3YL1 / RFU, ZEB2 / Fold change vs veh, ZEB2 / RFU, NRIP1 / Fold change vs veh, NRIP1 / RFU, PTTG1IP / Fold change vs veh, PTTG1IP / RFU, CAPN2 / Fold change vs veh, CAPN2 / RFU, MED14 / Fold change vs veh, MED14 / RFU, SNORA58 / Fold change vs veh, SNORA58 / RFU, C1orf63 / Fold change vs veh, C1orf63 / RFU, LRRFIP1 / Fold change vs veh, LRRFIP1 / RFU, NDUFAF7 / Fold change vs veh, NDUFAF7 / RFU, SLC12A2 / Fold change vs veh, SLC12A2 / RFU, IBTK / Fold change vs veh, IBTK / RFU, ESF1 / Fold change vs veh, ESF1 / Fold change vs veh, TMEM50B / RFU, TAOK1 / Fold change vs veh, TAOK1 / RFU, ACBD3 / Fold change vs veh, ACBD3 / RFU, TMA16 / Fold change vs veh, TMA16 / RFU, RWDD3 / Fold change vs veh, RWDD3 / RFU, BCAT1 / Fold change vs veh, BCAT1 / RFU, EDEM3 / Fold change vs veh, EDEM3 / RFU, TMEM33 / Fold change vs veh, TMEM33 / RFU, WDR75 / Fold change vs veh, WDR75 / RFU, AHCTF1 / Fold change vs veh, AHCTF1 / RFU, TFRC / Fold change vs veh, TFRC / RFU, ZDHHC17 / Fold change vs veh, ZDHHC17 / RFU, NOM1 / Fold change vs veh, NOM1 / RFU, ARL8B / Fold change vs veh, ARL8B / RFU, ZBTB11 / Fold change vs veh, ZBTB11 / RFU, TAMM41 / Fold change vs veh, TAMM41 / RFU, KIAA1704 /// LOC100996395 / Fold change vs veh, KIAA1704 /// LOC100996395 / RFU, ING1 / Fold change vs veh, ING1 / RFU, TRMT61B / Fold change vs veh, TRMT61B / RFU, FUBP3 / Fold change vs veh, FUBP3 / RFU, TP53 / Fold change vs veh, TP53 / RFU, TNKS2 / Fold change vs veh, TNKS2 / RFU, ZFP14 / Fold change vs veh, ZFP14 / RFU, ACTR2 / Fold change vs veh, ACTR2 / RFU, PPP3R1 / Fold change vs veh, PPP3R1 / RFU, PIK3R1 / Fold change vs veh, PIK3R1 / RFU, HNRNPA1 / Fold change vs veh, HNRNPA1 / RFU, RNF170 / Fold change vs veh, RNF170 / RFU, ZNF28 / Fold change vs veh, ZNF28 / RFU, RNGTT / Fold change vs veh, RNGTT / RFU, OGT / Fold change vs veh, OGT / RFU, BRD1 / Fold change vs veh, BRD1 / RFU, MARS / Fold change vs veh, MARS / RFU, ZNF655 / Fold change vs veh, ZNF655 / RFU, FAHD1 / Fold change vs veh, FAHD1 / RFU, BDP1 / Fold change vs veh, BDP1 / RFU, LRRCC1 / Fold change vs veh, LRRCC1 / RFU, ARID1A / Fold change vs veh, ARID1A / RFU, ZNF146 / Fold change vs veh, ZNF146 / RFU, ZNF330 / Fold change vs veh, ZNF330 / RFU, GPN3 / Fold change vs veh, GPN3 / RFU, C9orf123 / Fold change vs veh, C9orf123 / RFU, N4BP2L2 / Fold change vs veh, N4BP2L2 / RFU, ARFIP1 / Fold change vs veh, ARFIP1 / RFU, FAM179B / Fold change vs veh, FAM179B / RFU, BCL10 / Fold change vs veh, BCL10 / RFU, UHRF1BP1L / Fold change vs veh, UHRF1BP1L / RFU, BET1 / Fold change vs veh, BET1 / RFU, CNOT2 / Fold change vs veh, CNOT2 / RFU, ZNF268 / Fold change vs veh, ZNF268 / Fold change vs veh, ZNF507 / RFU, DGCR2 / Fold change vs veh, DGCR2 / RFU, WDSUB1 / Fold change vs veh, WDSUB1 / Fold change vs veh, HSP90B1 /// MIR3652 / RFU, ADSS / Fold change vs veh, ADSS / RFU, GK / Fold change vs veh, GK / RFU, ZNF148 / Fold change vs veh, ZNF148 / RFU, TAF9 / Fold change vs veh, TAF9 / RFU, SLC1A5 / Fold change vs veh, SLC1A5 / RFU, SLMO2 / Fold change vs veh, SLMO2 / RFU, ABCC4 / Fold change vs veh, ABCC4 / RFU, LOC101060439 /// RAP1B / Fold change vs veh, LOC101060439 /// RAP1B / RFU, RFX7 / Fold change vs veh, RFX7 / RFU, GTPBP10 / Fold change vs veh, GTPBP10 / RFU, CNEP1R1 / Fold change vs veh, CNEP1R1 / RFU, BIVM-ERCC5 /// ERCC5 / Fold change vs veh, BIVM-ERCC5 /// ERCC5 / RFU, ILF3 / Fold change vs veh, ILF3 / RFU 11762660_at / Fold change /veh 11762660_at / RFU VCAN (11757783_s_at) / Fold change /veh VCAN (11757783_s_at) / RFU DDX43 (11728927_at) / Fold change /veh DDX43 (11728927_at) / RFU KRT8 (11758188_x_at) / Fold change /veh KRT8 (11758188_x_at) / RFU NKD1 (11759106_at) / Fold change /veh NKD1 (11759106_at) / RFU SRD5A1 (11742802_a_at) / Fold change /veh SRD5A1 (11742802_a_at) / RFU TPSAB1 /// TPSB2 (11721975_s_at) / Fold change /veh TPSAB1 /// TPSB2 (11721975_s_at) / RFU GSTM3 (11746129_a_at) / Fold change /veh GSTM3 (11746129_a_at) / RFU IL23R (11737362_x_at) / Fold change /veh IL23R (11737362_x_at) / RFU TMEM51 (11727254_a_at) / Fold change /veh TMEM51 (11727254_a_at) / RFU PIWIL2 (11732686_x_at) / Fold change /veh PIWIL2 (11732686_x_at) / RFU ORM1 (11744905_x_at) / Fold change /veh ORM1 (11744905_x_at) / RFU CCDC152 (11743942_at) / Fold change /veh CCDC152 (11743942_at) / RFU ECM1 (11717891_a_at) / Fold change /veh ECM1 (11717891_a_at) / RFU IL23R (11748794_a_at) / Fold change /veh IL23R (11748794_a_at) / RFU TNFAIP8L3 (11732012_x_at) / Fold change /veh TNFAIP8L3 (11732012_x_at) / RFU MBOAT4 (11741988_at) / Fold change /veh MBOAT4 (11741988_at) / RFU 11764193_at / Fold change /veh 11764193_at / RFU TMEM53 (11763286_at) / Fold change /veh TMEM53 (11763286_at) / RFU MAGEB2 (11727129_at) / Fold change /veh MAGEB2 (11727129_at) / RFU TMEM200A (11744735_a_at) / Fold change /veh TMEM200A (11744735_a_at) / RFU CCDC152 (11751479_a_at) / Fold change /veh CCDC152 (11751479_a_at) / RFU FAM211A (11726209_a_at) / Fold change /veh FAM211A (11726209_a_at) / RFU RGS16 (11746705_a_at) / Fold change /veh RGS16 (11746705_a_at) / RFU VCAN (11755009_s_at) / Fold change /veh VCAN (11755009_s_at) / RFU RHOB (11743442_s_at) / Fold change /veh RHOB (11743442_s_at) / RFU RGS16 (11720943_a_at) / Fold change /veh RGS16 (11720943_a_at) / RFU RGS16 (11720944_at) / Fold change /veh RGS16 (11720944_at) / RFU, VPS4B / Fold change vs veh, VPS4B / RFU, CREB1 / Fold change vs veh, CREB1 / RFU, DNAJC13 / Fold change vs veh, DNAJC13 / RFU, GNAQ / Fold change vs veh, GNAQ / RFU, CDK5R1 / Fold change vs veh, CDK5R1 / RFU, ZRANB3 / Fold change vs veh, ZRANB3 / RFU, CUL4A / Fold change vs veh, CUL4A / RFU, CCNY / Fold change vs veh, CCNY / RFU, UFL1 / Fold change vs veh, UFL1 / RFU, COG3 / Fold change vs veh, COG3 / RFU, DIAPH2 / Fold change vs veh, DIAPH2 / RFU, SKA2 / Fold change vs veh, SKA2 / RFU, AFF3 / Fold change vs veh, AFF3 / RFU, LMF1 / Fold change vs veh, LMF1 / RFU, IPO11 / Fold change vs veh, IPO11 / RFU, DFFB / Fold change vs veh, DFFB / RFU, FOXP1 / Fold change vs veh, FOXP1 / RFU, CARD8 / Fold change vs veh, CARD8 / RFU, STRN3 / Fold change vs veh, STRN3 / RFU, ADK / Fold change vs veh, ADK / RFU, RASSF2 / Fold change vs veh, RASSF2 / RFU, WIPF1 / Fold change vs veh, WIPF1 / RFU, LARP1B / Fold change vs veh, LARP1B / RFU, RASA1 / Fold change vs veh, RASA1 / RFU, RB1 / Fold change vs veh, RB1 / RFU, PPFIA1 / Fold change vs veh, PPFIA1 / RFU, MAT2A / Fold change vs veh, MAT2A / RFU, CCT5 / Fold change vs veh, CCT5 / RFU, WDR92 / Fold change vs veh, WDR92 / RFU, CUX1 / Fold change vs veh, CUX1 / RFU, TTC7A / Fold change vs veh, TTC7A / RFU, TMEM135 / Fold change vs veh, TMEM135 / RFU, DEPTOR / Fold change vs veh, DEPTOR / RFU, CPM / Fold change vs veh, CPM / RFU, DNAJB6 / Fold change vs veh, DNAJB6 / RFU, CACNA2D3 / Fold change vs veh, CACNA2D3 / RFU, DTX4 / Fold change vs veh, DTX4 / RFU, TFCP2 / Fold change vs veh, TFCP2 / RFU, GMCL1 /// GMCL1P1 / Fold change vs veh, GMCL1 /// GMCL1P1 / RFU, AEBP2 / Fold change vs veh, AEBP2 / RFU, SNHG1 /// SNORD22 /// SNORD25 /// SNORD26 /// SNORD27 /// SNORD28 /// SNORD29 /// SNORD31 / Fold change vs veh, SNHG1 /// SNORD22 /// SNORD25 /// SNORD26 /// SNORD27 /// SNORD28 /// SNORD29 /// SNORD31 / Fold change (Aza/veh), C12orf56 (ProbeSet 11735607_a_at) / Fold change (ACY-1035/veh), C12orf56 (ProbeSet 11735607_a_at) / Fold change (Aza/veh), FGFR1OP (ProbeSet 11751329_s_at) / Fold change (ACY-1035/veh), FGFR1OP (ProbeSet 11751329_s_at) / Fold change (Aza/veh), VPS36 (ProbeSet 11739960_a_at) / Fold change (ACY-1035/veh), VPS36 (ProbeSet 11739960_a_at) / RFU SYPL1 (11715823_x_at) / Fold change /veh SYPL1 (11715823_x_at) / RFU IGFBP7 (11715501_s_at) / Fold change /veh IGFBP7 (11715501_s_at) / RFU REEP3 (11722064_at) / Fold change /veh REEP3 (11722064_at) / RFU IGLL1 (11728026_x_at) / Fold change /veh IGLL1 (11728026_x_at): dose or concentration left out as unconfirmed
Conditions: ProbeSet 11731583_a_at; LIST D

Structure (SMILES): Nc1ncn([C@@H]2O[C@H](CO)[C@@H](O)[C@H]2O)c(=O)n1 [azacitidine]
- RFU, LARP1B: 75.03 RFU
